Reference: patent US11873290B2, “Pyridazinone compounds and uses thereof” (Edgewise Therapeutics, Inc., priority 2018, dated 2024)

target: skeletal myofibrils (myosin ATPase activity); assay: Skeletal Myofibril ATPase Assay; type: biochemical; conditions: PK-LDH coupled, absorbance at 340 nm
How it was run: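 Skeletal myofibril ATPase measured by PK-LDH-coupled NADH depletion at 340 nm, read every 1.5–2 min for 1 h; pCa buffer with PIPES/CaCl2/EGTA, pH 7.0. Rate taken as max–min absorbance, normalised to 1% DMSO vehicle (100%) and no change (0%); IC50 from four-parameter fit, bottom ≥0.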

| IC50 [µM] | SMILES |
| --- | --- |
| 10 to 100 | CCc1noc(Cn2nc(-c3ccc(OC(F)F)cc3)ccc2=O)n1 [Compound 213, 6-(4-(difluoromethoxy)phenyl)-2-((3-ethyl-1,2,4-oxadiazol-5-yl)methyl)pyridazin-3(2H)-one] |
| 10 to 100 | Cc1noc(Cn2nc(-c3ccc(OC(F)F)cc3)ccc2=O)n1 [Compound 216, 6-(4-(difluoromethoxy)phenyl)-2-((3-methyl-1,2,4-oxadiazol-5-yl)methyl)pyridazin-3(2H)-one] |
| 10 to 100 | Cc1coc(Cn2nc(-c3ccc(OC(F)F)cc3)ccc2=O)n1 [Compound 218, 6-(4-(difluoromethoxy)phenyl)-2-((4-methyloxazol-2-yl)methyl)pyridazin-3(2H)-one] |
| 10 to 100 | Cc1nnc(Cn2nc(-c3ccc(OC(F)F)cc3)ccc2=O)o1 [Compound 222, 6-(4-(difluoromethoxy)phenyl)-2-((5-methyl-1,3,4-oxadiazol-2-yl)methyl)pyridazin-3(2H)-one] |
| > 100 | O=c1ccc(-c2ccc(OC(F)F)cc2)nn1Cc1nc2ccccc2[nH]1 [Compound 230, 2-((1H-benzo[d]imidazol-2-yl)methyl)-6-(4-(difluoromethoxy)phenyl)-pyridazin-3(2H)-one] |
| 10 to 100 | O=c1ccc(-c2ccc(OC(F)F)cc2)nn1Cc1nc(-c2ccccc2)co1 [Compound 237, 6-(4-(difluoromethoxy)phenyl)-2-((4-phenyloxazol-2-yl)methyl)pyridazin-3(2H)-one] |
| < 10 | CCOc1ccc(-c2ccc(=O)n(Cc3nc(-c4ccccn4)no3)n2)cc1 [Compound 304, 6-(4-ethoxyphenyl)-2-((3-(pyridin-2-yl)-1,2,4-oxadiazol-5-yl)methyl)pyridazin-3(2H)-one] |
| < 10 | COc1ccc(-c2ccc(=O)n(Cc3nc(-c4ccc(OC)cc4)no3)n2)cc1 [Compound 305, 6-(4-methoxyphenyl)-2-((3-(4-methoxyphenyl)-1,2,4-oxadiazol-5 yl)methyl)pyridazin-3(2H)-one] |
| 10 to 100 | COc1ccc(-c2ccc(=O)n(Cc3nc(-c4ccccn4)no3)n2)cc1 [Compound 306, 6-(4-methoxyphenyl)-2-((3-(pyridin-2-yl)-1,2,4-oxadiazol-5-yl)methyl)pyridazin-3(2H)-one] |
| 10 to 100 | COc1ccc(-c2ccc(=O)n(Cc3cc(=O)n4ccccc4n3)n2)cc1 [Compound 307, 2-((3-(4-methoxyphenyl)-6-oxopyridazin-1(6H)-yl)methyl)-4H-pyrido[1.2-a]pyrimidin-4-one] |
| < 10 | CCOc1ccc(-c2ccc(=O)n(Cc3nc(-c4cccs4)no3)n2)cc1 [Compound 308, 6-(4-ethoxyphenyl)-2-((3-(thiophen-2-yl)-1,2,4-oxadiazol-5-yl)methyl)pyridazin-3(2H)-one] |

The remaining lines, values behind:

| SMILES | IC50 [µM] |
| --- | --- |
| O=c1ccc(-c2ccc(OC(F)F)cc2)nn1Cc1nc(C2CC2)co1 [Compound 214, 2-((4-cyclopropyloxazol-2-yl)methyl)-6-(4-(difluoromethoxy)phenyl)-pyridazin-3(2H)-one] | 10 to 100 |
| O=c1ccc(-c2ccc(OC(F)F)cc2)nn1Cc1nnc(C(F)(F)F)o1 [Compound 215, 6-(4-(difluoromethoxy)phenyl)-2-((5-(trifluoromethyl)-1,3,4-oxadiazol-2-yl)methyl)pyridazin-3(2H)-one] | 10 to 100 |
| O=c1ccc(-c2ccc(OC(F)F)cc2)nn1Cc1nnc(C2CC2)s1 [Compound 217, 2-((5-cyclopropyl-1,3,4-thiadiazol-2-yl)methyl)-6-(4-(difluoromethoxy)phenyl)-pyridazin-3(2H)-one] | 10 to 100 |
| O=c1ccc(-c2ccc(OC(F)F)cc2)nn1Cc1nnc(C2CC2)o1 [Compound 219] | 10 to 100 |
| O=c1ccc(-c2ccc(OC(F)F)cc2)nn1Cc1cncnc1 [Compound 220, 6-(4-(difluoromethoxy)phenyl)-2-(pyrimidin-5-ylmethyl)pyridazin-3(2H)-one] | 10 to 100 |
| Cc1nnc(Cn2nc(-c3ccc(OC(F)F)cc3)ccc2=O)s1 [Compound 223, 6-(4-(difluoromethoxy)phenyl)-2-((5-methyl-1,3,4-thiadiazol-2-yl)methyl)pyridazin-3(2H)-one] | 10 to 100 |
| Cc1cnc(Cn2nc(-c3ccc(OC(F)F)cc3)ccc2=O)[nH]1 [Compound 224, 6-(4-(difluoromethoxy)phenyl)-2-((5-methyl-1H-imidazol-2-yl)methyl)pyridazin-3(2H)-one] | > 100 |
| O=c1ccc(-c2ccc(OC(F)F)cc2)nn1Cc1ccncn1 [Compound 225, 6-(4-(difluoromethoxy)phenyl)-2-(pyrimidin-4-ylmethyl)pyridazin-3(2H)-one] | > 100 |
| O=c1ccc(-c2ccc(OC(F)F)cc2)nn1Cc1nccn1CC(F)(F)F [Compound 226, 6-(4-(difluoromethoxy)phenyl)-2-((1-(2,2,2-trifluoroethyl)-1H-imidazol-2-yl)methyl)pyridazin-3(2H)-one] | > 100 |
| Cc1nnc(Cn2nc(-c3ccc(OC(F)F)cc3)ccc2=O)[nH]1 [Compound 227, 6-(4-(difluoromethoxy)phenyl)-2-((5-methyl-4H-1,2,4-triazol-3-yl)methyl)pyridazin-3(2H)-one] | > 100 |
| O=c1ccc(-c2ccc(OC(F)F)cc2)nn1Cc1nnc(C2CC2)[nH]1 [Compound 228, 2-((5-cyclopropyl-4H-1,2,4-triazol-3-yl)methyl)-6-(4-(difluoromethoxy)phenyl)-pyridazin-3(2H)-one] | > 100 |
| O=c1ccc(-c2ccc(OC(F)F)cc2)nn1Cc1nnc(C(F)(F)F)s1 [Compound 229, 6-(4-(difluoromethoxy)phenyl)-2-((5-(trifluoromethyl)-1,3,4-thiadiazol-2-yl)methyl)pyridazin-3(2H)-one] | > 100 |
| O=c1ccc(-c2ccc(OC(F)F)cc2)nn1Cc1ncccn1 [Compound 232, 6-(4-(difluoromethoxy)phenyl)-2-(pyrimidin-2-ylmethyl)pyridazin-3(2H)-one] | > 100 |
| O=c1[nH]nc(Cn2nc(-c3ccc(OC(F)F)cc3)ccc2=O)o1 [Compound 234, 5-((3-(4-(difluoromethoxy)phenyl)-6-oxopyridazin-1(6H)-yl)methyl)-1,3,4-oxadiazol-2(3H)-one] | > 100 |
| Nc1nnc(Cn2nc(-c3ccc(OC(F)F)cc3)ccc2=O)o1 [Compound 235, 2-((5-amino-1,3,4-oxadiazol-2-yl)methyl)-6-(4-(difluoromethoxy)phenyl)-pyridazin-3(2H)-one] | > 100 |
| O=c1ccc(-c2ccc(OC(F)F)cc2)nn1Cc1nnc(C(F)(F)F)[nH]1 [Compound 236, 6-(4-(difluoromethoxy)phenyl)-2-((5-(trifluoromethyl)-4H-1,2,4-triazol-3-yl)methyl)pyridazin-3(2H)-one] | > 100 |
| O=c1ccc(-c2ccc(OCC(F)(F)F)cc2)nn1Cc1cncc(F)c1 [Compound 238, 2-((5-fluoropyridin-3-yl)methyl)-6-(4-(2,2,2-trifluoroethoxy)phenyl) pyridazin-3(2H)-one] | < 10 |
| Cc1noc(Cn2nc(-c3ccc4c(c3)OCCCO4)ccc2=O)n1 [Compound 301, 6-(3,4-dihydro-2H-benzo[b][1,4]dioxepin-7-yl)-2-((3-methyl-1,2,4-oxadiazol-5-yl)methyl)pyridazin-3(2H)-one] | > 100 |
| COC(=O)c1ccc(Cn2nc(-c3ccc(SC)cc3)ccc2=O)o1 [Compound 302, methyl 5-((3-(4-(methylthio)phenyl)-6-oxopyridazin-1(6H)-yl)methyl)furan-2-carboxylate] | 10 to 100 |
